Measured values reported in patent US20260137696A1, “Compositions Comprising an Inhibitor of Galectin-3” (University of Liverpool, priority 2023, published 2026).

Experiments:
[1] = tested on: THP-1 differentiated macrophages; assay: Galectin-3-induced pro-inflammatory cytokine secretion, cytokine ELISA; assay type: cell-based; conditions: Galectin-3 10 μg/ml, various concentrations
Procedure: Secretion of pro-inflammatory cytokines IL-6 (FIG. 7A), IL-1β (FIG. 7B) and TNFα (FIG. 7C) from THP-1 differentiated macrophages was analysed in the absence or presence of Galectin-3 (10 μg/ml) and various concentrations of the compound of Formula I by cytokine ELISA.
THP-1 monocytes (5×10^5 cells/ml) were differentiated into macrophages by incubation with 10 ng/ml Phorbol 12-myristate-13-acetate (PMA) for 48 h at 37° C. The differentiated cells were washed gently with medium before introduction of fresh medium without or with 10 μg/ml Galectin-3, and/or different concentrations of the inhibitors for 24 h at 37° C. The culture medium was collected and the concentrations of IL-6, TNFα and IL1β in the medium were measured by IL-6, TNFα and IL1β ELISA kits according to the manufacture's protocols.

SW620^Gal3+ cells = assay: Tumour growth and metastasis in chick chorioallantoic membrane (CAM) model; assay type: in vivo, chicken embryos
Procedure: (§1) Effect of the compound of Formula I on tumour formation, growth and metastasis of SW620Gal3+ and SW620Gal3− cells was assessed in the chick chorioallantoic membrane (CAM) model. Galectin-3-expressing SW620^Gal3+ and Galectin-3-suppressed SW620^Gal3− cells were transfected with pHIV-Luc-ZsGreen vector and engrafted to the CAM on embryonic day 7. The compound of Formula I (24 μM) was injected into the allantoic cavity on the following day and the tumour formation and growth was analysed by fluorescence microscopy (FIG. 10A) and IVIS imaging (FIGS. 10B-FIG. 10D) on embryonic day 14. Seventy percent eggs grafted with Galectin-3-expressing SW620^Gal3+ cells formed various sized tumours in the absence of Formula I while the number of eggs formed in the Formula I treated group was reduced to 30%.
as §1, with “SW620Gal3−” for “SW620Gal3− cells”, “SW620^Ga13−” for “SW620^Gal3−”
(§2) Fertilised white leghorn chicken eggs were obtained from Lees Lane Poultry (Wirral, UK). The eggs were windowed on embryonic Day 3 with 4 ml albumin removed. The eggs were incubated at 37° C. in 35-40% humidity until embryonic day 7. ZsGreen- and luciferase-expressing SW620Gal3+ and SW620Gal3− cells (2.5×10^6) were then embedded on the chorioallantoic membrane (CAM). On embryonic Days 8 and 11, the inhibitors (24 μM) or control DMSO/PBS were injected into the allantoic cavity. The eggs were incubated until embryonic Day 14 The eggs were imaged using a Microscope as well as by IVIS. The embryos were then immediately decapitated. Organs were examined under fluorescence microscope for presence of ZsGreen-labelled tumour cells. Ethical approval for the experiments using chick embryos up to embryonic Day 14 was obtained from the Liverpool Animal Welfare and Ethical Review Body.

SW620^Gal3− cells = assay: as above; assay type: in vivo, chicken embryos; conditions: 24 μM; Galectin-3-suppressed SW620^Gal3−
Procedure: as §1
as §1, with “SW620Gal3−” for “SW620Gal3− cells”, “SW620^Ga13−” for “SW620^Gal3−”
as §2

SMILES: C[C@H]1COc2c(N3CCN(C)CC3)c(F)cc3c(=O)c(C(=O)NNc4ccc(N)cc4)cn1c23 [Formula I]
- Galectin-3-induced secretion of IL-1β [1]: dose-dependent inhibition
- Galectin-3-induced secretion of IL-6 [1]: dose-dependent inhibition
- Galectin-3-induced secretion of TNFα [1]: dose-dependent inhibition
- number of eggs that formed tumours (SW620^Gal3+ cells; 24 μM into allantoic cavity, embryonic day 14, 70% without Formula I): 30%
- reduction of luminescence intensity in the tumours (SW620^Gal3+ cells; 24 μM, IVIS imaging, embryonic day 14, vs group without Formula I): 66%
- tumours showing metastasis to other organs (SW620^Gal3+ cells; 24 μM, 25% in the absence of Formula I): none
- tumour formation or growth (SW620^Gal3− cells): no effect
